We go through twelve molecules from patent US5232937A, “Derivatives of N-phenylbenzamide with anti-ulcer and anti-allergy” (Rotta Research Laboratorium SpA., priority 1989, dated 1993).

Where only a bound is given, the exact number is not on record here.

The subject of test [1] is gastric acid secretion induced by pentagastrin. As to the kind of experiment: Anti-secretive activity, gastric acid secretion stimulated with pentagastrin (Lai method, modified). Format: in vivo. Conditions: Rattus norvegicus, iv, 1 h; I.V.; rats; pentagastrin 30 mcg/kg/h; read-out: ED50, antagonistic activity towards secretion induced by pentagastrin. As for the experimental part:
(§1) The anti-secretive activities were determined in rats with the use of male animals weighing approximately 200 g, anaesthetised with urethane. Gastric secretion was stimulated with pentagastrin, histamine or cabachol.
(§2) After tracheotomy, cannulae were inserted in the aesophagus and the duodenum. These were perfused with a tepid solution (37° C.) which was passed through the stomach at a constant flow rate of 1 ml/minute by means of a peristaltic pump. After stabilisation for 20 minutes, the stimulant, dissolved in a physiological solution, was perfused for 120 minutes at the dose indicated in Table 1 in a volume of 0.95 ml/hour. After 60 minutes of perfusion (base stimulation) the product under test was administered intravenously (I.V.) in a bolus and the perfusion of the stimulant was continued for a further 60 minutes. The acid secretion was recorded continuously as a function of time.
(§3) The activity of the product was evaluated as a percentage reduction in the acid secreted after the administration of the product against the base acidity measured in the first 60 minutes of collection which was in the presence of the stimulant alone.

In test [2] the test system is gastric acid secretion induced by histamine. The experiment in a line: Anti-secretive activity, gastric acid secretion stimulated with histamine (Lai method, modified). Type of test: in vivo. The conditions noted are these: Rattus norvegicus, iv, 1 h; I.V.; rats; histamine 2.3 mg/kg/h; read-out: ED50, antagonistic activity towards secretion induced by histamine. As for the experimental part: as §1, §2, §3

Test [3] has as its system gastric acid secretion induced by carbachol. The experiment in a line: Anti-secretive activity, gastric acid secretion stimulated with carbachol (Lai method, modified). Format: in vivo. Conditions: Rattus norvegicus, iv, 1 h; I.V.; rats; carbachol 30 mcg/kg/h; read-out: ED50, antagonistic activity towards secretion induced by carbachol. As for the experimental part:
as §1, §2, §3

The test system of test [4] is passive cutaneous anaphylaxis reaction. The experiment in a line: Passive cutaneous anaphylaxis (PCA) in rats, modified Goose and Blair method. Type of test: in vivo, rat. As for the experimental part: Male rats weighing approximately 400 g were treated with 10 mg/kg of grade V egg albumen dissolved in 1 ml of a physiological solution by I.M. and intraperitoneal (I.P.) routes. With one mg of Freund's complete adjuvent solution. 13 days after sensitisation, the animals were killed under […] anaesthesia, the blood was taken and the serum was kept at -70° C. after its titre of IgE specific to egg albumen had been assayed. On the basis of type, 2 intradermal injections (i.d.) of 0.1 ml of the antiserum, titrated and suitably diluted were given into the shaved backs of 200 g male rats at a time -24h.
The products under test were administered I.V. 20 minutes of the antigen. The animals were killed 30 minutes after the challenge, the skin of the back was turned inside out and the larger and smaller diameters of each blemish were measured. In practice the response of each animal was evaluated as the average of four diameters.

The subject of test [5] is actively-sensitised guinea-pig lung fragments (histamine release). As to the kind of experiment: Anaphylaxis in vitro, histamine release from actively sensitised guinea-pig lung fragments (modified Broklehurst method). Format: cell-based. As to the method: Male guinea pigs weighing approximately 250 g were sensitised with […] of grade V egg albumen dissolved in 1 ml of physiological solution and administered (1 ml/kg) I.P. and subcutaneously (S.C.). After three weeks the animals were killed under ethereal anaesthesia by bleeding. The lungs were removed and immersed in Tyrode solution at 4° C. Homogeneous fragments approximately 2 mm long were cut and divided into test pieces containing approximately 400 mg of tissue and […] of Tyrode. The samples were preincubated at 37° C. for 15 minutes with the compounds under test dissolved in 0.1 of Tyrode and incubated for a further 20 minutes at 37° C. The reaction was stopped by cooling in ice.
0.8 ml of the supernatant liquid were treated with perchloric acid and centrifuged to remove the proteins. The supernatant liquid was then made alkaline with 5N NaOH, the histamine was extracted with n-butanol and, after suitable dilution with n-heptane, was extracted again in dilute HCl.
O-phthalaldehyde was added to the samples and their fluorescence was measured with a fluorimeter at 450 mu after activation at 360 mu.
The histamine concentration in the samples was obtained from a standard straight-line graph in the range 50-800 ng/ml of histamine.

In general, ED50 refers to the dose that gives a 50% effect, or the effect in half of the subjects. For the molecule `O=C(O)c1cc(NC(=O)c2ccc([N+](=O)[O-])cc2)cc(C(=O)O)c1` [Compound 2, N-(3,5-dicarboxy)phenyl-4-nitrobenzamide], the ED50 in test [1] was 91 mg/kg; in test [2], 109 mg/kg; in test [3] it was 68 mg/kg.

Turning to `O=C(O)c1cc(NC(=O)c2ccc(Cl)cc2)cc(C(=O)O)c1` [Compound 3, N-(3,5-dicarboxy)phenyl-4-chlorobenzamide], the results for the ED50 in test [1], in test [2] and in test [3] were 115 mg/kg, 108 mg/kg and 104 mg/kg, respectively.

With `Cc1ccc(C(=O)Nc2cc(C(=O)O)cc(C(=O)O)c2)cc1` [Compound 4, N-(3,5-dicarboxy)phenyl-4-methylbenzamide], the values for the ED50 in test [1], in test [2] and in test [3] were 189 mg/kg, > 250 mg/kg and 216 mg/kg, respectively.

With `COc1ccc(C(=O)Nc2cc(C(=O)O)cc(C(=O)O)c2)cc1` [Compound 5, N-(3,5-dicarboxy)phenyl-4-methoxybenzamide], the ED50 in test [1] is 223 mg/kg; in test [2] it was 240 mg/kg; in test [3], > 250 mg/kg.

As for `O=C(O)c1cc(NC(=O)c2ccc([N+](=O)[O-])c(O)c2)cc(C(=O)O)c1` [Compound 6, N-(3,5-dicarboxy)phenyl-3-hydroxy-4-nitrobenzamide], the ED50 turned out to be 210 mg/kg in test [1], 205 mg/kg in test [2] and 186 mg/kg in test [3].

Turning to `O=C(O)c1cc(NC(=O)c2ccc(O)c(O)c2)cc(C(=O)O)c1` [Compound 7, N-(3,5-dicarboxy)phenyl-3,4-di-hydroxybenzamide], the ED50 was 97 mg/kg in test [1], 102 mg/kg in test [2] and 90 mg/kg in test [3].

On to `COc1ccc(C(=O)Nc2cc(C(=O)O)cc(C(=O)O)c2)cc1OC` [Compound 8, N-(3,5-dicarboxy)phenyl-3,4-dimethoxybenzamide], for which the 50% effective dose (ED50) in test [1] came to 208 mg/kg; in test [2], 222 mg/kg; in test [3], 188 mg/kg.

For `COc1cc(C(=O)Nc2cc(C(=O)O)cc(C(=O)O)c2)ccc1[N+](=O)[O-]` [Compound 9, N-(3,5-dicarboxy)phenyl-3-methoxy-4-nitrobenzamide], the figures for the ED50 in test [1], in test [2] and in test [3] were 88 mg/kg, 100 mg/kg and 88 mg/kg, respectively.

As for `N#Cc1ccc(C(=O)Nc2ccc(-c3nn[nH]n3)cc2)cc1` [Compound 10, N-°4-(5-tetrazolyl)e-phenyl-4-cyanobenzamide], the 50% effective dose (ED50) in test [1] was determined as 42 mg/kg; in test [2], 45 mg/kg; in test [3], 39 mg/kg.

`N#Cc1ccc(C(=O)Nc2cc(C(N)=O)cc(C(=O)O)c2)cc1` [Compound 13, N-(3-carboxy-5-carbamoyl)phenyl-4-cyanobenzamide]: the figures for the ED50 in test [1], in test [2] and in test [3] were 68 mg/kg, 73 mg/kg and 65 mg/kg, respectively.

Take `NC(=O)c1cc(NC(=O)c2ccc(-c3nn[nH]n3)cc2)cc(C(=O)O)c1` [Compound 14, N-(3-carboxy-5-carbamoyl)phenyl-4-(5-tetrazolyl)-benzamide]: the median effective dose (ED50) in test [1] is 51 mg/kg; in test [2], 48 mg/kg; in test [3], 48 mg/kg.

In general, inhibition refers to the percentage by which the read-out fell short of the control. Broadly, the EC50 is the concentration giving half of the maximal effect. Consider `O=C(O)c1cc(=O)c2c(OCC(O)COc3cccc4oc(C(=O)O)cc(=O)c34)cccc2o1` [DSCG, Di-sodium chromoglycate, reference compound], for which the entries for the “% inhibition of passive cutaneous anaphylaxis” value in test [4] (50 mg/kg I.V.), in test [4] (100 mg/kg I.V.) and in test [4] (150 mg/kg I.V.) were 16.0%, 22.1% and 57.5%, respectively. Moreover, in test [4] (Rattus norvegicus, iv, 0.5 h, I.V., rats), the ED50 turned out to be 153 mg/kg. Also, the “dose relation of activity (in words)” value in test [5] (10-300 mcg/ml) is given as “poorly dose-related”. Moreover, the “inhibitory effect on the release of histamine, all doses tested” value in test [5] (10-300 mcg/ml) is reported as ≤ 50%. Moreover, in test [5] (Cavia porcellus, 10 mcg/ml, read-out: % inhibition of anaphylactic histamine release), the inhibition at 10 µg/mL was found to be 6.8%. The inhibition at 30 µg/mL in test [5] (Cavia porcellus, 30 mcg/ml, read-out: % inhibition of anaphylactic histamine release) is 19.7%. In test [5] (Cavia porcellus, 100 mcg/ml, read-out: % inhibition of anaphylactic histamine release), the inhibition at 100 µg/mL came out at 17.8%. In addition, the inhibition at 300 µg/mL in test [5] (Cavia porcellus, 300 mcg/ml, read-out: % inhibition of anaphylactic histamine release) was 41.2%. Besides, the EC50 in test [5] (Cavia porcellus, guinea-pig lung fragments in vitro, read-out: EC50, anaphylactic histamine release) is 1460 µg/mL.
